Counter-ions that a name gives are not always drawn. Like-named read-outs stand apart in the source and are kept apart here.
Legend:
δ opioid receptors = δ opioid receptors (Rattus norvegicus, UniProt P33533); test: Opiate Binding Assay, displacement of 3[H]-DSLET (δ receptor); settings: for Mean IC50 μ/δ Ratio: ratio of mean IC50 values for μ and δ opioid receptors; for Percent Inhibition, delta: rat forebrain membranes, 3[H]-DSLET
μ opioid receptors = μ opioid receptors (Rattus norvegicus, UniProt P33535); test: Opiate Binding Assay, displacement of 3[H]-DAMGO (μ receptor); settings: for Percent Inhibition, mu: at 100 nm, rat forebrain membranes, 3[H]-DAMGO
mice = test: Phenylbenzoquinone (PBQ) Writhing Assay; format: in vivo, mouse (Charles River male albino mice); settings: for ED50: Mus musculus, 0.5 h
Source text: The Writhing Assay is one of the most widely-used experimental procedures for measuring the analgesic activity of different narcotic and nonnarcotic analgesic agents, and involves the continuous, chemically-induced pain of visceral origin to an animal, such as a mouse or rat. [Gyires et al., Arch. int. Pharmacodyn, 267, 131-140 (1984); C. Vander Wende et al., Fed. Proc., 15, 494 (1956); Koster et al., Fed. Proc., 18, 412 (1959); and Witken et al., J. PharmacoI. exp. Tger., 133, 400-408 (1961).] Chemicals which may be used to induce this pain include phenylbenzoquinone (PBQ) and acetic acid. As a result of the chemical irritation to the animal, a characteristic stretching and writhing of the animal (dorsiflexion of the animal's back, extension of its hindlimbs and the strong contraction of its abdominal musculature) will generally occur. […] Drugs which reduce the number of writhes of the animal appear to restore the normal nociceptive threshold of the animal.
Charles River male albino mice, weighing 20 to 30 grams were used in this assay.
Thirty minutes after subcutaneous or intragastric administration to ten mice of either 10 mg or 30 mg per kilogram of body weight of a compound of the present invention ("test compound"), […] of body weight of a 0.025% w/v solution of PBQ was injected intraperitoneally into each mouse. Ten mice which were given saline in place of a test compound of the invention were used as a control group.
Five minutes later, each mouse was individually placed into a glass beaker for observation, and the number of writhes occurring during the following ten-minute period was counted.
A test compound was considered to be "active" in this assay (to have produced analgesia in a mouse) if, after the administration of the compound to the mouse, the number of writhes elicited by a mouse injected with PBQ was equal to, or less than, one-half the median number of writhes recorded for the saline-treated control group of mice that day, as described by Taber in "Predictive Value of Analgesic Assays in Mice and Rats," Advances in Biochemical Psychopharmacology, 8, 191 (1974).
The standard initial screening doses of a test compound employed in this assay were 10 and/or 30 […] for both routes of administration.

[1] = po, intragastric, 30 min before PBQ, read-out: PBQ WRITHING ASSAY ED50 (mpk) I.G.
[2] = subcutaneous, screening doses 10 and/or 30 mpk
[3] = sc, subcutaneous, 30 min before PBQ, read-out: PBQ WRITHING ASSAY ED50 (mpk) S.C.
[4] = intragastric, 30 min before PBQ

Chain of δ opioid receptors (P33533 whole entry): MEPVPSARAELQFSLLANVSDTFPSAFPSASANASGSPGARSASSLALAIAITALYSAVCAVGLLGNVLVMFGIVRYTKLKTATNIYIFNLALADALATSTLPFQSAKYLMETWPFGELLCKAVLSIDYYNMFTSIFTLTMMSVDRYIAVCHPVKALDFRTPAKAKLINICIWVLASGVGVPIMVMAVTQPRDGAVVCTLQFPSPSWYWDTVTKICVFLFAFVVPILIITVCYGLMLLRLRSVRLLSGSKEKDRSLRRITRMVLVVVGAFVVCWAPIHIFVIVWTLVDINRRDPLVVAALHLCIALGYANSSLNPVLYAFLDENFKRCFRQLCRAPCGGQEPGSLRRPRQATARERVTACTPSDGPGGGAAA
Chain of μ opioid receptors (P33535 whole entry): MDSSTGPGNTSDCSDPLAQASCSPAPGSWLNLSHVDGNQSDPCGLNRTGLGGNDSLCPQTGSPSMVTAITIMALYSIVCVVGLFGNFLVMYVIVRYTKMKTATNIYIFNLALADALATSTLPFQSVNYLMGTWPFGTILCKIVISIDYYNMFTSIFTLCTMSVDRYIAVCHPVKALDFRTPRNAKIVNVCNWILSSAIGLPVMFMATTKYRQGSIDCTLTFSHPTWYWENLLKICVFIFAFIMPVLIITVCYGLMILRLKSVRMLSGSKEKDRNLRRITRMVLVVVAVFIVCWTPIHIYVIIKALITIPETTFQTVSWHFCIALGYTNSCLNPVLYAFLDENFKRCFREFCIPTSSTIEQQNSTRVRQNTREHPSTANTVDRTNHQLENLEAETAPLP

COc1ccc2c3c1O[C@H]1c4oc5ccccc5c4C[C@@]4(OC)[C@@H](C2)N(C)CC[C@]314 [IV, 2 6,7,8,14bβ-Hexahydro-1,8aβ-(9H)-dimethoxy-7-methyl-4,8(R,α)-methano-4bS^* -5H-bisbenzofuro [3,2-e:2',3'-g]isoquinoline] was tested, and the IC50 (δ opioid receptors) was 43.5 nM, the “Mean IC50 μ/δ Ratio” value (δ opioid receptors) was 446 and the IC50 (μ opioid receptors) was 21200 nM. The ED50 (mice; [1]) was 2.2 mg/kg and the “Number of mice in 10 exhibiting inhibition of writhing, S.C.” value (mice; [2]) was 6/10.

With C=CCN1CC[C@]23c4c5ccc(O)c4O[C@H]2c2[nH]c4c(Br)cccc4c2C[C@@]3(O)[C@H]1C5 [X, 13-Bromo-5,6,7,8,14, 14bβ-hexahydro-7-(2-propenyl)-4,8(R,α)-methano-4bS^* -benzofuro [2,3-a]pyrido[4,3-b]carbazole-1,8aβ(9H)-diol monohydrochloride] the IC50 (δ opioid receptors) was 11.1 nM, the “Mean IC50 μ/δ Ratio” value (δ opioid receptors) was 350 and the IC50 (μ opioid receptors) was 3900 nM. The “Number of mice in 10 exhibiting inhibition of writhing, I.G.” value (mice; intragastric, screening doses 10 and/or 30 mpk) was 5/10 and the “Number of mice in 10 exhibiting inhibition of writhing, S.C.” value (mice; [2]) was 5/10.

With CN1CC[C@]23c4c5ccc(O)c4O[C@H]2c2[nH]c4ccccc4c2C[C@@]3(O)[C@H]1C5 [I, 5,6,7,8,14,14bβ-Hexahydro-7-methyl-4,8(R,α)-methano-4bS^* -benzofuro[2,3-a]pyrido[4,3-b]carbazole-1, 8aβ(9H)-diol, monohydrochloride] the IC50 (δ opioid receptors) was 2.6 nM, the “Mean IC50 μ/δ Ratio” value (δ opioid receptors) was 58 and the IC50 (μ opioid receptors) was 152 nM.

For CC(=O)Oc1ccc2c3c1O[C@H]1c4[nH]c5ccccc5c4C[C@@]4(OC(C)=O)[C@@H](C2)N(C)CC[C@]314 [XVIII, 5,6,7,8,14,14bβ-Hexahydro-7-methyl-4,8(R,α)-methano-4bS^* -benzofuro[2,3-a] pyrido[4,3-b]carbazole-1,8aβ-9H)-diol, diacetate, monohydrochloride], the IC50 (δ opioid receptors) was 66.4 nM and the “Percent Inhibition, mu” value (μ opioid receptors) was 72%.

CN1CC[C@]23c4c5ccc(O)c4O[C@H]2c2[nH]c4c(Br)cccc4c2C[C@@]3(O)[C@H]1C5 [VII, 13-Bromo-5,6,7,8,14bβ-hexahydro-7-methyl-4,8(R,α)-methano-4bS^* -benzofuro[2,3-a]pyrido [4,3-b]carbazole-1,8aβ(9H)-diol, monohydrochloride] was tested, and the IC50 (δ opioid receptors) was 10 nM, the “Mean IC50 μ/δ Ratio” value (δ opioid receptors) was 25.3 and the IC50 (μ opioid receptors) was 253 nM. For the same molecule, the ED50 (mice; [1]) was 2.3 mg/kg and the ED50 (mice; [3]) was 0.9 mg/kg.

In the case of CN1CC[C@]23c4c5ccc(O)c4O[C@H]2c2[nH]c4c(Br)cc(Br)cc4c2C[C@@]3(O)[C@H]1C5 [VI, 11,13-Dibromo-5,6,7,8,14,14bβ-hexahydro-7-methyl-4,8(R,α)-methano-4bS^* -benzofuro[2,3-a]pyrido[4,3-b] carbazole-1,8aβ(9H)-diol, monohydrochloride], the “Percent Inhibition, delta” value (δ opioid receptors; 10 nm) is reported as 11%, the “PBQ WRITHING ASSAY ED50 (mpk) I.G.” value (mice; [4]) is reported as “inactive” and the “Number of mice in 10 exhibiting inhibition of writhing, S.C.” value (mice; [2]) is reported as 6/10.

For C=CCN1CC[C@]23c4c5ccc(O)c4O[C@H]2c2oc4ccccc4c2C[C@@]3(O)[C@H]1C5 [IX, 6,7,8,14β-Tetrahydro-7-(2-propenyl)-4,8(R,α)-methano-4bS^* -5H-bisbenzofuro[3,2-e:2',3'-g] isoquinoline-1,8aβ(9H)-diol, monohydrochloride], the IC50 (δ opioid receptors) was 0.21 nM, the “Mean IC50 μ/δ Ratio” value (δ opioid receptors) was 1100 and the IC50 (μ opioid receptors) was 236 nM. It also gave an ED50 (mice; [1]) of 3.9 mg/kg and an ED50 (mice; [3]) of 2.8 mg/kg.

With CCCN1CC[C@]23c4c5ccc(O)c4O[C@H]2c2oc4ccccc4c2C[C@@]3(O)[C@H]1C5 [XIV, 6,7,8,14bβ-Tetrahydro-7-propyl-4,8(R,α)-methano-4bS^* -5H-bisbenzofuro[3,2-e:2',3'-g] isoquinoline-1,8aβ(9H)-diol, monohydrochloride] the IC50 (δ opioid receptors) was 7.7 nM, the “Mean IC50 μ/δ Ratio” value (δ opioid receptors) was 26 and the IC50 (μ opioid receptors) was 200 nM.

For CN1CC[C@]23c4c5ccc(O)c4O[C@H]2c2[nH]c4c(ccc6ccccc64)c2C[C@@]3(O)[C@H]1C5 [III, 5,6,7,8,16, 16bβ-Hexahydro-7-methyl-4,8(R, α)-methano-4BS^* -benzo[i]benzofuro [2,3-a]pyrido[4,3-b]carbazole-1,8aβ(9H)-diol, monohydrochloride], the IC50 (δ opioid receptors) was 20.8 nM, the “Mean IC50 μ/δ Ratio” value (δ opioid receptors) was 26 and the IC50 (μ opioid receptors) was 550 nM. For the same molecule, the “PBQ WRITHING ASSAY ED50 (mpk) I.G.” value (mice; [4]) was “inactive” and the “Number of mice in 10 exhibiting inhibition of writhing, S.C.” value (mice; [2]) was 5/10.

In the case of CN1CC[C@]23c4c5ccc(O)c4O[C@H]2c2oc4ccccc4c2C[C@@]3(O)[C@H]1C5 [II, 6,7,8,14bβ-Tetrahydro-7-methyl-4,8(R,α)-methano-4bS^* -5H-bisbenzofuro[3,2-e:2',3'-g]isoquinoline-1, 8aβ(9H)-diol, monohydrochloride], the IC50 (δ opioid receptors) is reported as 5.4 nM, the “Mean IC50 μ/δ Ratio” value (δ opioid receptors) is reported as 17 and the IC50 (μ opioid receptors) is reported as 93 nM. The ED50 (mice; [1]) was 2.4 mg/kg and the ED50 (mice; [3]) was 0.2 mg/kg.

With CC(=O)O[C@@]12Cc3c([nH]c4ccccc34)[C@@H]3Oc4c(O)ccc5c4[C@@]31CCN(C)[C@@H]2C5 [XIX, 5,6,7,8,14,14bβ-Hexahydro-7-methyl-4,8(R,α-methano-4bS^* -benzofuro[2,3-a]pyrido[4,3-b]carbazole-1,8aβ-9H)-dio1,8a-acetate monohydrochloride] the IC50 (δ opioid receptors) was 1 nM, the “Mean IC50 μ/δ Ratio” value (δ opioid receptors) was 769 and the IC50 (μ opioid receptors) was 769 nM.

In the case of CN1CC[C@]23c4c5ccc(O)c4O[C@H]2c2[nH]c4ccccc4c2C[C@H]3[C@H]1C5 [XII, 5,6,7,8,8a,9,14, 14bβ-Octahydro-7-methyl-4,8(R,α)-methano-4bS^* -benzofuro[2,3-a] pyrido[4,3-b]carbazol-1-ol, monohydrochloride], the IC50 (δ opioid receptors) is reported as 4.9 nM, the “Mean IC50 μ/δ Ratio” value (δ opioid receptors) is reported as 11.8 and the IC50 (μ opioid receptors) is reported as 58 nM.

For CN1CC[C@]23c4c5ccc(O)c4O[C@H]2c2[nH]c4c(Br)cccc4c2C[C@H]3[C@H]1C5 [XIII, 13-Bromo-5,6,7,8,8a,9,14,14bβ-octahydro-7-methyl-4,8(R,α)-methano-4bS^* -benzofuro [2,3-a]pyrido[4,3-b]carbazol-1-ol, monohydrochloride], the IC50 (δ opioid receptors) was 52 nM, the “Mean IC50 μ/δ Ratio” value (δ opioid receptors) was 5.1 and the IC50 (μ opioid receptors) was 265 nM. The “PBQ WRITHING ASSAY ED50 (mpk) I.G.” value (mice; [4]) was “inactive” and the “Number of mice in 10 exhibiting inhibition of writhing, S.C.” value (mice; [2]) was 4/10.

With CC(=O)Oc1ccc2c3c1O[C@H]1c4[nH]c5ccccc5c4C[C@@]4(O)[C@@H](C2)N(C)CC[C@]314 [XVII, 5,6,7,8,14,14bβ-Hexahydro-7-methyl-4,8 (R,α)-methano-4bS^* -benzofuro[2,3-a] pyrido[4,3-b]carbazole-1,8aβ(9H)-diol, 1-acetate] the IC50 (δ opioid receptors) was 34 nM, the “Mean IC50 μ/δ Ratio” value (δ opioid receptors) was 38 and the IC50 (μ opioid receptors) was 1300 nM.

COc1ccc2c3c1O[C@H]1c4oc5ccccc5c4C[C@@]4(O)[C@@H](C2)N(C)CC[C@]314 [V, 6,7,8,14bβ-Tetrahydro-1-methoxy-7-methyl-4,8(R,α)-methano-4bS^* -5H-bisbenzofuro [3,2-e:2',3'-g]isoquinolin-8aβ(9H)-ol] was tested, and the “Percent Inhibition, delta” value (δ opioid receptors; at 100 nm) was 72%, the “Percent Inhibition, mu” value (μ opioid receptors) was 2% and the ED50 (mice; [1]) was 2.7 mg/kg. The “PBQ WRITHING ASSAY ED50 (mpk) S.C.” value (mice; subcutaneous, 30 min before PBQ) was “inactive”.

For Oc1ccc2c3c1O[C@H]1c4oc5ccccc5c4C[C@@]4(O)[C@@H](C2)N(CC2CCC2)CC[C@]314 [XV, 6,7,8,14bβ-Tetrahydro-7-(cyclobutylmethyl)-4,8 (R,α)-methano-4bS^* -5H-bisbenzofuro [3,2-e:2',3'-g]isoquinoline-1,8aβ(9H)-diol, monohydrochloride], the IC50 (δ opioid receptors) was 5.1 nM, the “Mean IC50 μ/δ Ratio” value (δ opioid receptors) was 135 and the IC50 (μ opioid receptors) was 690 nM.

C=CCN1CC[C@]23c4c5ccc(O)c4O[C@H]2c2[nH]c4ccccc4c2C[C@@]3(O)[C@H]1C5 [VIII, 5,6,7,8,14,14bβ-Hexahydro-7(2-propenyl)-4,8 (R,α)-methano-4bS^* -benzofuro[2,3-a]pyrido[4,3-b] carbazole-1,8aβ(9H)-diol, monohydrochloride] was tested, and the IC50 (δ opioid receptors) was 1.4 nM, the “Mean IC50 μ/δ Ratio” value (δ opioid receptors) was 71 and the IC50 (μ opioid receptors) was 99 nM.

In the case of CN1CC[C@]23c4c5ccc(O)c4O[C@H]2c2oc4ccccc4c2C[C@H]3[C@H]1C5 [XI, 6,7,8,8a,9,14bβ-Hexahydro-7-methyl-4,8(R,α)-methano-4bs^* -5H-bisbenzofuro[3,2-e:2',3'-g] isoquinolin-1-ol, monohydrochloride], the IC50 (δ opioid receptors) is reported as 3.5 nM, the “Mean IC50 μ/δ Ratio” value (δ opioid receptors) is reported as 6.9 and the IC50 (μ opioid receptors) is reported as 24 nM. The ED50 (mice; [3]) was 2 mg/kg and the “PBQ WRITHING ASSAY ED50 (mpk) I.G.” value (mice; [4]) was “inactive”.

Reference: patent US5223507A, “Method of using opioid compounds as delta opioid selective agonist analgesics” (G. D. Searle & Co., priority 1992, dated 1993)
